Test results from US20170299609A1, “TREATMENT OF AMYOTROPHIC LATERAL SCLEROSIS WITH SK CHANNEL ACTIVATORS” (Wright State University, priority 2016, published 2017).

Tests used:
Format in all cases: in vivo
[1] = test system: G93A high expressor line of transgenic male ALS mice with a B6SJL background; assay: Survival of transgenic ALS mice, CyPPA given P5 to P20 (Example 1); details: CyPPA 0.014 μg/kg daily IP for 16 days (P5-P20)
Description: (§1) Thus, the effect of SK channel activators on survival and motor function of the G93A high expressor line of transgenic male ALS mice with a B6SJL background (hereinafter, “transgenic ALS mice”) was characterized. The transgenic ALS mice carry a mutation of the superoxide dismutase 1 gene; as a result, the transgenic ALS mice develop a neurodegenerative disease which closely mimics ALS in humans. In this experiment, CyPPA (n=13) or vehicle solution (i.e., saline+11% DMSO, n=12) was administered early to the transgenic ALS mice for sixteen (16) days (between ages P5 and P20) via daily intraperitoneal (i.e., IP) injection. CyPPA was administered at a dose of 0.014 μg/kg in both experiments.
(§2) In this experiment, the effect of CyPPA on survival of the transgenic ALS mice was assessed by determining when the transgenic ALS mice met end point criteria, i.e., full paralysis of both hind limbs and failing to right themselves 30 seconds after being turned on their backs. Additionally, the effect of CyPPA on motor function of the transgenic ALS mice was assessed by daily measuring from the age of P85 to the end stage using the rotarod machine. More specifically, the transgenic ALS mice were placed on a rotating rod for four minutes at a speed of 5 rotations per minute (i.e., RPM). The speed was increased to 25 RPM and the transgenic ALS mice were deemed unable to complete the task if they could complete only five percent (i.e., 12 seconds) of the task (i.e., the end stage). Rotarod performance was assessed to detect onset of symptoms associated with the neurodegenerative disease mimicking ALS in humans in the transgenic ALS mice and/or to monitor disease progression in the transgenic ALS mice, such as, e.g., via characterizing the rate of loss of motor function.

[2] = test system: G93A high expressor line of transgenic male ALS mice with a B6SJL background; assay: Rotarod motor function of transgenic ALS mice, CyPPA given P5 to P20 (Example 1); details: CyPPA 0.014 μg/kg daily IP for 16 days (P5-P20)
Description: as §1, §2

[3] = test system: G93A high expressor line of transgenic male ALS mice with a B6SJL background; assay: Rotarod motor function of transgenic ALS mice, CyPPA given at ALS onset P90 to P96 (Example 2); details: CyPPA 0.014 μg/kg daily IP for 7 days (P90-P96); 92 to 105 and 112 to 119 days of age; FIG. 4
Description: Because symptoms of ALS in the transgenic ALS mice emerge around P90, the effect of administering CyPPA at P90 was characterized. Without being bound by the theory, it is believed that administration of CyPPA in the transgenic ALS mice at ALS onset would correlate to beginning treatment in humans upon diagnosis of ALS. In this experiment, CyPPA (n=14) or vehicle solution (i.e., saline+11% DMSO; n=14) was administered to the transgenic ALS mice for seven (7) days (between ages P90 and P96) via daily IP injection. CyPPA was administered at a dose of 0.014 μg/kg.
as §2, with “stage).” for “stage). Rotarod performance was assessed to detect onset of symptoms associated with the neurodegenerative disease mimicking ALS in humans in the transgenic ALS mice and/or to monitor disease progression in the transgenic ALS mice, such as, e.g., via characterizing the rate of loss of motor function.”

Cc1cc(NC2CCCCC2)nc(-n2nc(C)cc2C)n1 [CyPPA]
longer survival relative to control injected with vehicle solution [1]: 10 days | increase in mean survival over control injected with vehicle solution ([1]; p=0.0063): ~8% | mean survival ([1]; vehicle 125.76 days, p=0.0063): 135.72 days | time able to stay on the rotarod relative to vehicle control ([2]; 122 to 126 days of age, FIG. 3): significantly longer | able to complete the rotarod task longer than vehicle-injected mice ([2]; FIG. 2): 5 days | reduction of rate of decline in motor function relative to vehicle control ([2]; FIG. 3, p=0.0017): ~40% | slope of decline in motor function (rotarod percent complete vs days of age) ([2]; FIG. 3 line A, vehicle slope 0.0349): 0.0211 | average motor function (rotarod completion ratio) versus vehicle control [3]: significantly better
